The target of one experiment is T1, BRM (Homo sapiens, UniProt P51531).
T1 construct: made in house; host or cells: High Five insect cells
The experiment is described as follows: ATPase catalytic activity of BRM, ADP-Glo in vitro biochemical assay. The conditions noted are these: for IC50: ADP-Glo ATPase assay, 30 nM BRM, 400 μM ATP; for Ratio* (BRG1 IC50 (μM) divided by BRM IC50 (μM)): selectivity ratio BRG1 IC50 / BRM IC50. A digest of the protocol:
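ADP-Glo luminescence, after depletion of leftover ATP and conversion of ADP, reported the activity. The 1 h room-temperature reaction held 400 μM ATP, 20 nM salmon sperm DNA and 30 nM BRM in 20 mM Tris pH 8, 20 mM MgCl2, 50 mM NaCl, 0.1% Tween-20, 1 mM DTT.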
For orientation: ADP-Glo first removes unused ATP, then detects ADP through luciferase.

The target of a further experiment is T2, BRG-1 (Homo sapiens, UniProt P51532).
T2 construct: made in house; host or cells: High Five insect cells
The experiment is described as follows: ATPase catalytic activity of BRG-1, ADP-Glo in vitro biochemical assay. Particulars: ADP-Glo ATPase assay, 30 nM BRG-1, 400 μM ATP; read-out: BRG1 IC50. A digest of the protocol:
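In this in vitro format, BRG-1 hydrolysis product ADP is detected via a two-step ADP-Glo workup (ATP removal, then ADP-to-ATP conversion with luciferase detection) followed by a luminescence read.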

The source of these data is patent US20230416248A1, “COMPOUNDS AND USES THEREOF” (Foghorn Therapeutics Inc., priority 2020, published 2023).

T1 sequence (P51531 whole entry): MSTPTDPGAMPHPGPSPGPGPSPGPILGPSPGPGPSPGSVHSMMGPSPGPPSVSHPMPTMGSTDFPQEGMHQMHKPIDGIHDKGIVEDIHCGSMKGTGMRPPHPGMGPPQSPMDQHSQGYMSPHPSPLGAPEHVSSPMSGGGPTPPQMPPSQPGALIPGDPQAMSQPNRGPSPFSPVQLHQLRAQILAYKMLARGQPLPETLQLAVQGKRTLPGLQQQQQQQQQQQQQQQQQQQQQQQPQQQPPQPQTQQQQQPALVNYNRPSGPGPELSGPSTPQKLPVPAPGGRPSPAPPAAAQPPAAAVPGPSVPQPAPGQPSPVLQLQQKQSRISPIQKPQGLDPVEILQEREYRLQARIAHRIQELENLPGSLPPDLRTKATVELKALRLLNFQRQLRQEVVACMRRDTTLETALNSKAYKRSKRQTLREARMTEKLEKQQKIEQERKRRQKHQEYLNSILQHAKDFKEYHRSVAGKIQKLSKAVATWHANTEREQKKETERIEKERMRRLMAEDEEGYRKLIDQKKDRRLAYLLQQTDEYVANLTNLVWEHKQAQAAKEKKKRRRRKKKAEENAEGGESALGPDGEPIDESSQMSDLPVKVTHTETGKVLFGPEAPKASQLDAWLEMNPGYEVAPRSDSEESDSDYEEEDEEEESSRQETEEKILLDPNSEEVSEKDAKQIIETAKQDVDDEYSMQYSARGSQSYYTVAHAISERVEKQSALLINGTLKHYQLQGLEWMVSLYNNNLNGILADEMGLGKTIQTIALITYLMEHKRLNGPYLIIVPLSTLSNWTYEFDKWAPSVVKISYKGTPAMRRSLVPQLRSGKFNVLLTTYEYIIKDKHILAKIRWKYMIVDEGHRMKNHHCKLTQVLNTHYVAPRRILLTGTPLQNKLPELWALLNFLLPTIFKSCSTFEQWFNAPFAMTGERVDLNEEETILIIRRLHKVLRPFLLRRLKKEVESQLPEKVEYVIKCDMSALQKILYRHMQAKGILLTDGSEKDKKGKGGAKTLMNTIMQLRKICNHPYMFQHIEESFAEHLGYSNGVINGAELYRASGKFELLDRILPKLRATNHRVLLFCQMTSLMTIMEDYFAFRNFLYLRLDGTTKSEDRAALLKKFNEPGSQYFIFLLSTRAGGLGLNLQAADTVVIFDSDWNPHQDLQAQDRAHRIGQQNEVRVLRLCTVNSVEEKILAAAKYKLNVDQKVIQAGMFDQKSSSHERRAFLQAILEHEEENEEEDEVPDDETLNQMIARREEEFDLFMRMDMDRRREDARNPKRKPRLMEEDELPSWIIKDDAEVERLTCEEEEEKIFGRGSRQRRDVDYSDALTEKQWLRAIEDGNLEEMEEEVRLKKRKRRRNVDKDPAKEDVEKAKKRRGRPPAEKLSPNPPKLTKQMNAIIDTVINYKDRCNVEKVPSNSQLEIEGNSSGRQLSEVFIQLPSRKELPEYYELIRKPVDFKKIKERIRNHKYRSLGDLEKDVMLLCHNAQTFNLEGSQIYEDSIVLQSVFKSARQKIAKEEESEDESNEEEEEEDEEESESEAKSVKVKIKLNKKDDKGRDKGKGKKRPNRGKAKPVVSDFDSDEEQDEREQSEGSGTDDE
T2 sequence (P51532 whole entry): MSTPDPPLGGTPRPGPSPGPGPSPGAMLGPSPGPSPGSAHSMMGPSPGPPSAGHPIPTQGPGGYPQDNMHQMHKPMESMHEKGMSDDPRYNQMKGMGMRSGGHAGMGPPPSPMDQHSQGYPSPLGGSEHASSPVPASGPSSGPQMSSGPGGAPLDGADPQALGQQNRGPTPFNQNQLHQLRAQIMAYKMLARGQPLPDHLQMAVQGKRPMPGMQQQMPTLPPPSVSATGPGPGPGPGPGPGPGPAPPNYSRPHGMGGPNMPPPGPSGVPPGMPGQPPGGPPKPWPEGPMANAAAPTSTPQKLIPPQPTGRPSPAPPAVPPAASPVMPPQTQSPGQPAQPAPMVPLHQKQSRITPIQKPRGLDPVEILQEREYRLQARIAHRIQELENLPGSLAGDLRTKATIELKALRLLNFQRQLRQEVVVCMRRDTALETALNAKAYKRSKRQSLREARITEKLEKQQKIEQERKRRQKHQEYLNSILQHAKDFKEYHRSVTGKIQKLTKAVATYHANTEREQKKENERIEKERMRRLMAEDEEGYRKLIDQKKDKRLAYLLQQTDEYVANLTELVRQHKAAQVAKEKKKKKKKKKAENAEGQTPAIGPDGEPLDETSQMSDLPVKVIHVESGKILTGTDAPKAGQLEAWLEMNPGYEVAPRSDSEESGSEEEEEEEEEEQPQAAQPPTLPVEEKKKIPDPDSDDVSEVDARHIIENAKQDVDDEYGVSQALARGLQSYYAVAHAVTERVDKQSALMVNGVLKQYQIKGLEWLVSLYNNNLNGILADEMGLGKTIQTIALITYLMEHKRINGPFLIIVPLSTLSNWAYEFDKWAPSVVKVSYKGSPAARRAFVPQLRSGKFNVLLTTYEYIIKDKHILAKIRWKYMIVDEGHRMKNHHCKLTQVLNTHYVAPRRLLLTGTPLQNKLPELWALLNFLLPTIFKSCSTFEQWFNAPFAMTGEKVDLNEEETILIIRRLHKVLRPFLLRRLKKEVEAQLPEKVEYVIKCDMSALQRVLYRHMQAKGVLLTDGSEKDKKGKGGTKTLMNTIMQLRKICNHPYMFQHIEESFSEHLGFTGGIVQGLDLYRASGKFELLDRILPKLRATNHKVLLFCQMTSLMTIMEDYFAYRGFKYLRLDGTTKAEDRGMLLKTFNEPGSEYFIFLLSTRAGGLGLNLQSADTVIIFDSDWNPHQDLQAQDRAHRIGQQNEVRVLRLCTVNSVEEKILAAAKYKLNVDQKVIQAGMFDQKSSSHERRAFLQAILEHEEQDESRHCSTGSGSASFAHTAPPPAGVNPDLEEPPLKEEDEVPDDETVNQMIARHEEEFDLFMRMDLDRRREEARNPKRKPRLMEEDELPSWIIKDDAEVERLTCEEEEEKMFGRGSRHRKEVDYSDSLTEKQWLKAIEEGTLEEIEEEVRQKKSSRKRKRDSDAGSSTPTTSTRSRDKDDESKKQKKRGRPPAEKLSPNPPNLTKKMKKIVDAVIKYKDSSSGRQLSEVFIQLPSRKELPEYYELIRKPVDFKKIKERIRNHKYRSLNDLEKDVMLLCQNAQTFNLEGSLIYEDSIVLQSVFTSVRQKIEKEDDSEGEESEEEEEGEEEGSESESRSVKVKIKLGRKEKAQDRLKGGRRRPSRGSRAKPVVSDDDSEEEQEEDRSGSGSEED

With `C[C@@H]1CN(c2cncc(-c3ccc4cnc(CNC(=O)c5ccc(C(F)F)c(S(C)(=O)=O)c5)cc4n3)n2)C[C@H](C)O1` [Compound 163], on BRM, the IC50 (in general, the concentration at which inhibition is half-maximal) came to 0.0208 µM and the “Ratio* (BRG1 IC50 (μM) divided by BRM IC50 (μM))” value stood at 12.71. Moreover, the IC50 at BRG-1 is 0.264 µM.
`CS(=O)(=O)c1cc(C(=O)NCc2cc3nc(-c4cncc(C5CC5)n4)ccc3cn2)ccc1CC(F)F` [Compound 164]: at BRM, the IC50 is 0.11 µM and the “Ratio* (BRG1 IC50 (μM) divided by BRM IC50 (μM))” value amounted to 12.80. Besides, the IC50 on BRG-1 was 1.41 µM.
In the same order, the values of `CC(C)Oc1cccc(-c2ccc3cnc(CNC(=O)c4ccc5c(c4)S(=O)(=O)CCOC5)cc3n2)n1` [Compound 165] are 0.116 µM, 18.39 and 2.12 µM.
In the same order, the values of `C[C@@H]1CN(c2ccc(F)c(-c3ccc4cnc(CNC(=O)c5ccc6c(c5)S(=O)(=O)CCOC6)cc4n3)n2)C[C@H](C)O1` [Compound 166] are 0.0168 µM, 12.29 and 0.206 µM.
Taken in the same sequence, the figures for `O=C(NCc1cc2nc(-c3cccc(OCC(F)F)n3)ccc2cn1)c1ccc2c(c1)S(=O)(=O)CCOC2` [Compound 167] were 0.0593 µM, 13.95 and 0.827 µM.
Regarding `COC1CCOc2c(-c3ccc4cnc(CNC(=O)c5ccc6c(c5)S(=O)(=O)CCOC6)cc4n3)cccc21` (stereo not drawn) [Compound 168], on BRM, the IC50 worked out at 0.094 µM and the “Ratio* (BRG1 IC50 (μM) divided by BRM IC50 (μM))” value came to 9.35. Also, on BRG-1, the IC50 was 0.879 µM.
Taken in the same sequence, the figures for `Cc1cc(-c2cccc(-c3ccc4cnc(CNC(=O)c5ccc6c(c5)S(=O)(=O)CCOC6)cc4n3)n2)cc(C)n1` [Compound 169] were 0.003 µM, 3.33 and 0.0099 µM.
Taken in the same sequence, the figures for `O=C(NCc1cc2nc(-c3cccc(C4(F)CC(F)(F)C4)n3)ccc2cn1)c1ccc2c(c1)S(=O)(=O)CCOC2` [Compound 170] were 0.109 µM, 6.33 and 0.689 µM.
In the same order, the values of `O=C(NCc1cc2nc(-c3cccc(C4CC(F)(F)C4)n3)ccc2cn1)c1ccc2c(c1)S(=O)(=O)CCOC2` [Compound 171] are 0.0524 µM, 9.52 and 0.499 µM.
Regarding `COCCN1CCOc2c(-c3ccc4cnc(CNC(=O)c5ccc6c(c5)S(=O)(=O)CCOC6)cc4n3)cccc21` [Compound 172], at BRM, it took 0.0092 µM to reach half-maximal inhibition (IC50) and the “Ratio* (BRG1 IC50 (μM) divided by BRM IC50 (μM))” value worked out at 11.42. Further, the IC50 at BRG-1 was found to be 0.105 µM.
In the same order, the values of `C[C@@H]1[C@@H](c2cccc(-c3ccc4cnc(CNC(=O)c5ccc6c(c5)S(=O)(=O)CCOC6)cc4n3)n2)C1(F)F` [Compound 173] are 0.108 µM, 13.78 and 1.49 µM.
In the same order, the values of `CN(c1cccc(-c2ccc3cnc(CNC(=O)c4ccc5c(c4)S(=O)(=O)CCOC5)cc3n2)n1)C1CCOCC1` [Compound 174] are 0.0288 µM, 9.24 and 0.266 µM.
Take `CN1CCc2nc(-c3ccc4cnc(CNC(=O)c5ccc6c(c5)S(=O)(=O)CCOC6)cc4n3)ccc21` [Compound 176]: the values for the IC50 at BRM and on BRG-1 were 0.437 µM and 1.79 µM, respectively. Moreover, the “Ratio* (BRG1 IC50 (μM) divided by BRM IC50 (μM))” value at BRM is 4.10.
Taken in the same sequence, the figures for `C[C@@H]1CN(c2cccc(-c3ccc4cnc(CNC(=O)c5ccc(Cl)c(S(C)(=O)=O)c5)cc4n3)n2)C[C@@H](C)O1` [Compound 177] were 0.0158 µM, 0.222 µM and 14.02.
With `C[C@H]1COCCN1c1cccc(-c2ccc3cnc(CNC(=O)c4ccc5c(c4)S(=O)(=O)CCOC5)cc3n2)n1` [Compound 178], on BRM, the IC50 was found to be 0.18 µM and the “Ratio* (BRG1 IC50 (μM) divided by BRM IC50 (μM))” value turned out to be 7.72. In addition, the IC50 at BRG-1 came out at 1.39 µM.
In the case of `C[C@H]1CN(c2cccc(-c3ccc4cnc(CNC(=O)c5ccc(Cl)c(S(C)(=O)=O)c5)cc4n3)n2)C[C@H](C)O1` [Compound 179], the IC50 against BRM came out at 0.0333 µM; at BRG-1, 0.383 µM. For the same compound, the “Ratio* (BRG1 IC50 (μM) divided by BRM IC50 (μM))” value at BRM is reported as 11.49.
On to `C[C@@H]1CN(c2nccc(-c3ccc4cnc(CNC(=O)c5ccc(Cl)c(S(C)(=O)=O)c5)cc4n3)n2)C[C@H](C)O1` [Compound 180], for which, on BRM, the half-maximal inhibitory concentration (IC50) was 0.0176 µM and the “Ratio* (BRG1 IC50 (μM) divided by BRM IC50 (μM))” value worked out at 15.48. At BRG-1, the IC50 is 0.272 µM.
Regarding `C[C@@H]1COCCN1c1cccc(-c2ccc3cnc(CNC(=O)c4ccc5c(c4)S(=O)(=O)CCOC5)cc3n2)n1` [Compound 181], at BRM, the IC50 was 0.0405 µM and the “Ratio* (BRG1 IC50 (μM) divided by BRM IC50 (μM))” value was found to be 9.06. For the same compound, the IC50 on BRG-1 came to 0.367 µM.
Taken in the same sequence, the figures for `C[C@@H]1CN(c2cncc(-c3ccc4cnc(CNC(=O)c5ccc(Cl)c(S(C)(=O)=O)c5)cc4n3)n2)C[C@H](C)O1` [Compound 182] were 0.0445 µM, 9.47 and 0.422 µM.
Consider `O=C(NCc1cc2nc(-c3cccc(C4=CCOCC4)n3)ccc2cn1)c1ccc2c(c1)S(=O)(=O)CCOC2` [Compound 183], for which, on BRM, the IC50 came out at 0.0089 µM and the “Ratio* (BRG1 IC50 (μM) divided by BRM IC50 (μM))” value stood at 11.33. For the same compound, the IC50 at BRG-1 was 0.101 µM.
Consider `O=C(NCc1cc2nc(-c3cccc(N4CCC(F)(F)CC4)n3)ccc2cn1)c1ccc2c(c1)S(=O)(=O)CCOC2` [Compound 184], for which, on BRM, half-maximal inhibition (IC50) required 0.0805 µM and the “Ratio* (BRG1 IC50 (μM) divided by BRM IC50 (μM))” value came to 9.55. The IC50 at BRG-1 stood at 0.769 µM.
For `CC(=O)N1CCOc2c(-c3ccc4cnc(CNC(=O)c5ccc6c(c5)S(=O)(=O)CCOC6)cc4n3)cccc21` [Compound 185], the values for the IC50 against BRM and on BRG-1 were 0.357 µM and 1.34 µM, respectively. In addition, at BRM, the “Ratio* (BRG1 IC50 (μM) divided by BRM IC50 (μM))” value turned out to be 3.75.
In the same order, the values of `O=C(NCc1cc2nc(-c3cccc(N4CCC(F)CC4)n3)ccc2cn1)c1ccc2c(c1)S(=O)(=O)CCOC2` [Compound 186] are 0.0221 µM, 0.254 µM and 11.50.
In the same order, the values of `O=C(NCc1cc2nc(-c3cncc(C4CC4)n3)ccc2cn1)c1cc(Cl)c2c(c1)S(=O)(=O)CCOC2` [Compound 187] are 0.109 µM, 2.67 µM and 24.40.
Taken in the same sequence, the figures for `O=C1CS(=O)(=O)c2cc(C(=O)NCc3cc4nc(-c5cccc(C6CC6)c5)ccc4cn3)ccc2CN1` [Compound 188] were 0.287 µM, 5 µM and 17.42.
Turning to `CN1CCc2ccc(-c3ccc4cnc(CNC(=O)c5ccc6c(c5)S(=O)(=O)CCOC6)cc4n3)nc21` [Compound 190], on BRM, half-maximal inhibition (IC50) was put at 0.0459 µM and the “Ratio* (BRG1 IC50 (μM) divided by BRM IC50 (μM))” value was found to be 8.57. The IC50 at BRG-1 was determined as 0.394 µM.
Take `O=C(NCc1cc2nc(-c3cccc(C4CC4)n3)cnc2cn1)c1ccc2c(c1)S(=O)(=O)CCOC2` [Compound 191]: the figures for the IC50 at BRM and at BRG-1 were 0.0601 µM and 1.18 µM, respectively. For the same compound, at BRM, the “Ratio* (BRG1 IC50 (μM) divided by BRM IC50 (μM))” value is listed as 19.73.
In the same order, the values of `COCc1ccc(C(=O)NCc2cc3nc(-c4cccc(N5C[C@@H](C)O[C@@H](C)C5)n4)ccc3cn2)cc1S(C)(=O)=O` [Compound 192] are 0.0051 µM, 0.0327 µM and 6.45.
In the same order, the values of `O=C(NCc1cc2nc(-c3cn(C4COC4)nc3C3CC3)ccc2cn1)c1ccc2c(c1)S(=O)(=O)CCOC2` [Compound 194] are 0.219 µM, 2.78 µM and 12.69.
Taken in the same sequence, the figures for `Cc1ccc(C(=O)NCc2cc3nc(-c4cccc(N5C[C@@H](C)O[C@@H](C)C5)n4)ccc3cn2)cc1S(C)(=O)=O` [Compound 195] were 0.0037 µM, 0.0313 µM and 8.49.
In the case of `O=C(NCc1cc2nc(-c3cccc4c3CCN4C3COC3)ccc2cn1)c1ccc2c(c1)S(=O)(=O)CCOC2` [Compound 198], the IC50 came out at 0.222 µM on BRM and 0.967 µM on BRG-1. Also, the “Ratio* (BRG1 IC50 (μM) divided by BRM IC50 (μM))” value on BRM was 4.34.
Turning to `CO[C@@H]1CCN(c2cccc(-c3ccc4cnc(CNC(=O)c5ccc6c(c5)S(=O)(=O)CCOC6)cc4n3)n2)C1` [Compound 200], the IC50 is 0.0081 µM at BRM and 0.0591 µM at BRG-1. Further, the “Ratio* (BRG1 IC50 (μM) divided by BRM IC50 (μM))” value at BRM stood at 7.31.
In the same order, the values of `CO[C@H]1CCN(c2cccc(-c3ccc4cnc(CNC(=O)c5ccc6c(c5)S(=O)(=O)CCOC6)cc4n3)n2)C1` [Compound 201] are 0.0194 µM, 0.177 µM and 9.11.
Taken in the same sequence, the figures for `O=C(NCc1cc2nc(-c3cccc(N4CCC(F)(F)C4)n3)ccc2cn1)c1ccc2c(c1)S(=O)(=O)CCOC2` [Compound 202] were 0.0179 µM, 0.136 µM and 7.59.
For `CC(c1cccc(-c2ccc3cnc(CNC(=O)c4ccc5c(c4)S(=O)(=O)CCOC5)cc3n2)n1)C(F)F` (stereo not drawn) [Compound 203], the IC50 against BRM worked out at 0.154 µM; on BRG-1, 1.58 µM. Moreover, at BRM, the “Ratio* (BRG1 IC50 (μM) divided by BRM IC50 (μM))” value was found to be 10.23.
In the same order, the values of `O=C(NCc1cc2nc(-c3cccc(C4CC4)n3)ccc2cn1)c1cnc2c(c1)S(=O)(=O)CCOC2` [Compound 204] are 0.0565 µM, 0.679 µM and 12.01.
